Measured values taken from patent publication US20240408093A1, “HETEROBIFUNCTIONAL COMPOUNDS AND THEIR USE IN TREATING DISEASE” (HALDA THERAPEUTICS OPCO, INC., priority 2022, published 2024).
Like-named read-outs stand apart in the source and are kept apart here.

Legend:
Assay type in all cases: cell-based
KRAS G12C = KRAS G12C (Homo sapiens, UniProt P01116, G12C); assay: KRAS G12C cellular target engagement assay (SW1573 cells); design: host or cells: SW1573; details: 17 hours, read-out: TE50 (the source's name)
Procedure: SW1573 cells (ATCC CRL-2170) were cultured in RPMI 1640 (Gibco A1049101), supplemented with 10% Heat-inactivated FBS (Gibco Cat. #A38400-01) and 1% Penicillin/Streptomycin (Gibco Cat. #15140-122) in an incubator set at 37° C. and 5% CO2. Cells were seeded at 100,000 cells/ml in 1 ml of complete media in a 24-well, tissue culture-treated plate (Falcon 353226) and incubated overnight. Cells were treated with increasing concentrations of compound and let incubate at 37C and 5% CO2 for 17 hours, after which media was aspirated and cells were lysed in 75 uL RIPA Lysis and Extraction Buffer (Thermo 89901) supplemented with 5 mM MgCl2, Protease and Phosphatase inhibitor cocktail (Thermo 1861281), and Universal Nuclease (Thermo 88700). Plates with RIPA were shaken at 4° C. at 600 rpm for 15 min. After shaking samples, they were collected and spun down at 21,000 g for 15 min at 4° C. Following centrifugation, ˜10 ug of lysate was added to Laemmli Sample Buffer (Bio-Rad 1610747) plus 10% beta-mercaptoethanol, boiled for 15 minutes at 65° C. and loaded onto 12% Mini-PROTEAN TGX™ Precast Protein Gels (Bio-Rad). Protein was transferred to a nitrocellulose membrane (Thermo LC2000) using the iBlot 2 Dry Blotting System (Thermo). After transfer, membranes were washed in 1× TBST (Bioland Scientific LLC TBST0103) 3× for 5 min. Following the wash, blocking buffer (Rockland MB-070) was added for 1 hour at room temperature. Primary antibodies against KRAS (LifeSpan Bio LS-C175665) and actin (Cell Signaling Technology 8457) were added overnight at 4° C. Membranes were then washed again 3× for 5 min in 1× TBST. Secondary antibodies (LI-COR 926-68072 and 926-68073) were added and shaken for 1 hr at room temperature. Membranes were then washed 3× for 5 min in 1×TBST and developed. Membranes were placed on an Odyssey imager (LI-COR).

GSPT1 = assay: Payload release assay (DC50 readout), GSPT1 degradation in the presence of recombinant target protein; details: I-series compounds (GSPT1 readout inferred)
Procedure: Exemplary compounds were tested for ability to cause degradation of CCNK or GSPT1 in the presence of recombinant target protein.
HEK293 LgBiT/GSPT1 HiBiT CRISPR Knock-in cells (Promega) were cultured in DMEM (Gibco 11995), supplemented with 10% Heat-inactivated FBS (Gibco A38400-01) and 1% Penicillin/Streptomycin (Gibco 15140-122) and 200 Vg/ml Hygromycin B (Gibco 10-687-010) at 37° C. with 5% CO2 in a humidified tissue culture incubator. HEK293 LgBiT/CCNK HiBiT cells (in-house, described above) were cultured in DMEM (Gibco 11995), supplemented with 10% Heat-inactivated FBS (Gibco A38400-01) and 1% Penicillin/Streptomycin (Gibco 15140-122) 200 Vg/ml Hygromycin B (Gibco 10-687-010), and 1 Vg/ml Puromycin Dihydrochloride (Thermo A1113803) at 37° C. with 5% CO2 in a humidified tissue culture incubator. Cells were seeded (1000 cells/well for HEK293 LgBiT/GSPT1 HiBiT cells or 3000 cells/well for HEK293 LgBiT/CCNK HiBiT cells) 384-well, tissue culture-treated white plates (Perkin Elmer 6007680) in 10 μL media lacking selection for 18-24 hours. Plates were spun at 300 g for 30 seconds and stored in the incubator overnight. After 24 hours, a 5 μL aliquot of recombinant target protein (final concentration of either 5 μM KRAS amino acids 1-169, C51S, C80L, C118S, G12C or 3 μM EGFR amino acids 696-1022 or 3 μM EGFR amino acids 696-1022, T790M, L858R) was added to wells, followed immediately by a 5 μL aliquot of 4× compound-containing medium supplemented with Endurazine Substrate (Promega N2570) was added in each well, at a final top concentration of 10 μM test compound and 0.5× Endurazine, with 4-fold dilutions, using DMSO alone as a negative control. Plates were then spun at 300×g for 3 minutes again and cultured at 37° C. with 5% CO2. After 6 hours the plate was read on Envision MultiMode Plate Reader 2105 (Perkin Elmer) to measure luminescence signal. Data was normalized to DMSO treated cell wells. A four-parameter non-linear regression curve fit was applied to dose-response data in Prism to determine the half maximal growth inhibitory concentration (GI50) of each compound.

HeLa cells (ATCC CCL-2) = assay: Cellular growth inhibition assay, HeLa cells (Example 16); details: Homo sapiens, 72 hours, CellTiter-Glo 2.0
[1] = test system: HEK293 cells (ATCC CRL-1573); assay: Cellular growth inhibition assay, HEK293 cells (Example 16); details: Homo sapiens, 72 hours, CellTiter-Glo 2.0
[2] = 0 μM recombinant KRAS G12C, read-out: DC50 at 0 μM KRAS G12C
[3] = 5 μM recombinant KRAS G12C, read-out: DC50 at 5 μM KRAS G12C

Chain of KRAS G12C (P01116 1-188 isoform P01116-2 G12C): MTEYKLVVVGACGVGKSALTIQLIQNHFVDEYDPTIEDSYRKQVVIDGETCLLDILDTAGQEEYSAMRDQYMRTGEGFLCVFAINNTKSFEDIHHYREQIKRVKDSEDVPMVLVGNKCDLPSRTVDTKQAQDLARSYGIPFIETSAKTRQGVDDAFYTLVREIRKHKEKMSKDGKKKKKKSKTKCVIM

Compound	EC50 (KRAS G12C)	DC50 (GSPT1; [2])	DC50 (GSPT1; [3])	GI50 (HeLa cells (ATCC CCL-2))	GI50 [1]
C=C(COc1ccc(Cl)cc1NC(=O)NCc1ccc2c(c1)CN(C1CCC(=O)NC1=O)C2=O)C(=O)N1CC2(CC(n3nc(-c4ccc5c(cnn5C)c4)c(-c4c(Cl)c(C)cc5[nH]ncc45)c3C)C2)C1 (stereo not shown) [Compound I-76]	250 to 5000 nM	< 250 nM	< 250 nM	500 to 1500 nM	< 500 nM
C=C(COc1cc(NC(=O)NCc2ccc3c(c2)CN(C2CCC(=O)NC2=O)C3=O)cc(C(F)(F)F)c1)C(=O)N1CC2(CC(n3nc(-c4ccc5c(cnn5C)c4)c(-c4c(Cl)c(C)cc5[nH]ncc45)c3C)C2)C1 (stereo not shown) [Compound I-77]	250 to 5000 nM	< 250 nM	< 250 nM	> 10000 nM	500 to 1500 nM
C=C(COc1cc(NC(=O)NCc2ccc3c(c2F)CN(C2CCC(=O)NC2=O)C3=O)cc(C(F)(F)F)c1)C(=O)N1CC2(CC(n3nc(-c4ccc5c(cnn5C)c4)c(-c4c(Cl)c(C)cc5[nH]ncc45)c3C)C2)C1 (stereo not shown) [Compound I-68]	250 to 5000 nM	> 10000 nM	> 10000 nM	> 10000 nM	< 500 nM
C=C(COc1cccc(NC(=O)NCc2ccc3c(c2)CN(C2CCC(=O)NC2=O)C3=O)c1)C(=O)N1CCN(c2nc(OC[C@@H]3CCCN3C)nc3c2CCN(c2cccc4cccc(Cl)c24)C3)C[C@@H]1CC#N (stereo partly shown) [Compound I-49]	< 250 nM	250 to 5000 nM	> 10000 nM	> 10000 nM	> 10000 nM
C=C(COc1c(Cl)cccc1NC(=O)NCc1ccc2c(c1)CN(C1CCC(=O)NC1=O)C2=O)C(=O)N1CCN(c2nc(OC[C@@H]3CCCN3C)nc3c2CCN(c2cccc4cccc(Cl)c24)C3)C[C@@H]1CC#N (stereo partly shown) [Compound I-86]	250 to 5000 nM	< 250 nM	< 250 nM	500 to 1500 nM	< 500 nM
C=C(COc1cc(NC(=O)NCc2ccc3c(c2F)CN(C2CCC(=O)NC2=O)C3=O)cc(C(F)(F)F)c1)C(=O)N1CCN(c2nc(OC[C@@H]3CCCN3C)nc3c2CCN(c2cccc4cccc(Cl)c24)C3)C[C@@H]1CC#N (stereo partly shown) [Compound I-85]	< 250 nM	250 to 5000 nM	< 250 nM	> 10000 nM	1500 to 10000 nM
C=C(COc1cc(Cl)cc(NC(=O)NCc2cc3c(cc2F)C(=O)N(C2CCC(=O)NC2=O)C3)c1)C(=O)N1CCN(c2nc(OC[C@@H]3CCCN3C)nc3c2CCN(c2cccc4cccc(Cl)c24)C3)C[C@@H]1CC#N (stereo partly shown) [Compound I-64]	250 to 5000 nM	250 to 5000 nM	< 250 nM	> 10000 nM	500 to 1500 nM
C=C(COc1cc(NC(=O)NCc2ccc3c(c2)CN(C2CCC(=O)NC2=O)C3=O)cc(C(F)(F)F)c1)C(=O)N1CCN(c2nc(OC[C@@H]3CCCN3C)nc3c2CCN(c2cccc4cccc(Cl)c24)C3)C[C@@H]1CC#N (stereo partly shown) [Compound I-48]	250 to 5000 nM	250 to 5000 nM	250 to 5000 nM	> 10000 nM	1500 to 10000 nM
C=C(COc1ccccc1CNC(=O)NCc1ccc2c(c1)CN(C1CCC(=O)NC1=O)C2=O)C(=O)N1CCN(c2nc(OC[C@@H]3CCCN3C)nc3c2CCN(c2cccc4cccc(Cl)c24)C3)C[C@@H]1CC#N (stereo partly shown) [Compound I-63]	250 to 5000 nM	> 10000 nM	> 10000 nM	> 10000 nM	> 10000 nM
C=C(COc1cc(C(F)(F)F)c(Cl)cc1NC(=O)NCc1ccc2c(c1)CN(C1CCC(=O)NC1=O)C2=O)C(=O)N1CCN(c2nc(OC[C@@H]3CCCN3C)nc3c2CCN(c2cccc4cccc(Cl)c24)C3)C[C@@H]1CC#N (stereo partly shown) [Compound I-88]	< 250 nM	< 250 nM	< 250 nM	500 to 1500 nM	< 500 nM
C=C(COc1cc(NC(=O)NCc2ccc3c(c2)CN(C2CCC(=O)NC2=O)C3=O)cc(OC)c1)C(=O)N1CC2(CC(n3nc(-c4ccc5c(cnn5C)c4)c(-c4c(Cl)c(C)cc5[nH]ncc45)c3C)C2)C1 (stereo not shown) [Compound I-67]	5000 to 10000 nM	250 to 5000 nM	250 to 5000 nM	> 10000 nM	> 10000 nM
C=C(COc1cc(Cl)cc(NC(=O)NCc2ccc3c(c2)CN(C2CCC(=O)NC2=O)C3=O)c1F)C(=O)N1CCN(c2nc(OC[C@@H]3CCCN3C)nc3c2CCN(c2cccc4cccc(Cl)c24)C3)C[C@@H]1CC#N (stereo partly shown) [Compound I-84]	> 10000 nM	< 250 nM	< 250 nM	1500 to 10000 nM	< 500 nM
C=C(COc1cc(Cl)c(OC)cc1NC(=O)NCc1ccc2c(c1)CN(C1CCC(=O)NC1=O)C2=O)C(=O)N1CC2(CC(n3nc(-c4ccc5c(cnn5C)c4)c(-c4c(Cl)c(C)cc5[nH]ncc45)c3C)C2)C1 (stereo not shown) [Compound I-66]	250 to 5000 nM	< 250 nM	< 250 nM	500 to 1500 nM	< 500 nM
C=C(COc1cc(NC(=O)NCc2ccc3c(c2)CN(C2CCC(=O)NC2=O)C3=O)cc(F)c1F)C(=O)N1CCN(c2nc(OC[C@@H]3CCCN3C)nc3c2CCN(c2cccc4cccc(Cl)c24)C3)C[C@@H]1CC#N (stereo partly shown) [Compound I-75]	5000 to 10000 nM	> 10000 nM	> 10000 nM	> 10000 nM	> 10000 nM
C=C(COc1ccccc1NC(=O)NCc1ccc2c(c1)CN(C1CCC(=O)NC1=O)C2=O)C(=O)N1CCN(c2nc(OC[C@H]3CCCN3C)nc3c2CCN(c2cccc4cccc(Cl)c24)C3)C[C@H]1CC#N (stereo partly shown) [Compound I-80]	< 250 nM	250 to 5000 nM	< 250 nM	–	> 10000 nM
C=C(COC(=O)NCCCc1ccc(Cl)cc1NC(=O)NCc1ccc2c(c1)CN(C1CCC(=O)NC1=O)C2=O)C(=O)N1CCN(c2nc(OC[C@@H]3CCCN3C)nc3c2CCN(c2cccc4cccc(Cl)c24)C3)C[C@@H]1CC#N (stereo partly shown) [Compound I-79]	< 250 nM	250 to 5000 nM	> 10000 nM	–	> 10000 nM
C=C(COC(=O)NCCc1ccc(Cl)cc1NC(=O)NCc1ccc2c(c1)CN(C1CCC(=O)NC1=O)C2=O)C(=O)N1CCN(c2nc(OC[C@@H]3CCCN3C)nc3c2CCN(c2cccc4cccc(Cl)c24)C3)C[C@@H]1CC#N (stereo partly shown) [Compound I-78]	< 250 nM	> 10000 nM	> 10000 nM	–	> 10000 nM
C=C(COc1cc(-c2ccccn2)ccc1CNc1nc(N[C@H](CC)CO)nc2c1ncn2C(C)C)C(=O)N1CCN(c2nc(OC[C@@H]3CCCN3C)nc3c2CCN(c2cccc4cccc(Cl)c24)C3)C[C@@H]1CC#N [II-186]	250 to 5000 nM	–	–	1500 to 10000 nM	500 to 1500 nM
C=C(CN1CCN(c2nc(NCc3nc4cc(C)ccc4[nH]3)n3ncc(Br)c3n2)CC1)C(=O)N1CCN(c2nc(OC[C@@H]3CCCN3C)nc3c2CCN(c2cccc4cccc(Cl)c24)C3)C[C@@H]1CC#N [II-190]	250 to 5000 nM	–	–	< 500 nM	< 500 nM
